Data on 11 compounds can be found in patent US5064947A (priority 1990, dated 1991).

The test system of one test is A-2 receptors. The following applies: cited from earlier work.
The target in another test is T1, adenosine A-2 receptors (Rattus norvegicus, UniProt P30543).
T1 construct: from tissue; host or cells: striatal membranes of young male rats (C-D strain, from Charles River)
Kind of test: Affinity for brain adenosine A-2 receptors ([3H]NECA displacement, rat brain striatum membranes). It is filed as binding. On the procedure:
The pellet is finally resuspended in 40 vol. of 50mM Tris-HCl (pH 7.7) per gram of original wet weight of tissue.
Incubations are carried out at 25° C. for 60 minutes. Each tube is filtered through GF/B glass fiber filters using a vacuum. The filters are rinsed two times with 5 ml of the ice-cold buffer. […] The filters are counted by liquid scintillation spectrometry.
Specific binding of [3H]NECA is measured as the excess over blanks run in the presence of 100 μM 2-chloroadenosine. […] Specific binding to membranes is about 50% of the total bound.

In a further test the target is T2, Adenosine A-1 receptor (Rattus norvegicus, UniProt P25099).
T2 sequence (P25099 1-326): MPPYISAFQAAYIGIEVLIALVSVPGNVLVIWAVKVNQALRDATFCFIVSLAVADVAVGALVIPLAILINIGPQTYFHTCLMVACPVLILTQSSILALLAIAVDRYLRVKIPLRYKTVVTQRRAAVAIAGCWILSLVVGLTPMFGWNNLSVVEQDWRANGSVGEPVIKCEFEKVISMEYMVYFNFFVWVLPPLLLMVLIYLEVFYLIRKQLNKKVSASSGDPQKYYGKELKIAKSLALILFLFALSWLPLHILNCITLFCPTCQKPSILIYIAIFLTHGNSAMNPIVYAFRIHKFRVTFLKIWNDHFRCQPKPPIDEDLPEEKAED

The test system of a further test is A-1 receptors. The following applies: cited from earlier work.
The conditions of test [1]: in vivo; cited from earlier work.
The mark [2] stands for this setting: ratio of A-2 Ki to A-1 Ki (selectivity).

Each structure is given as a SMILES string. Where two headings read alike, the source gives them in different places.

T1 sequence (P30543 whole entry): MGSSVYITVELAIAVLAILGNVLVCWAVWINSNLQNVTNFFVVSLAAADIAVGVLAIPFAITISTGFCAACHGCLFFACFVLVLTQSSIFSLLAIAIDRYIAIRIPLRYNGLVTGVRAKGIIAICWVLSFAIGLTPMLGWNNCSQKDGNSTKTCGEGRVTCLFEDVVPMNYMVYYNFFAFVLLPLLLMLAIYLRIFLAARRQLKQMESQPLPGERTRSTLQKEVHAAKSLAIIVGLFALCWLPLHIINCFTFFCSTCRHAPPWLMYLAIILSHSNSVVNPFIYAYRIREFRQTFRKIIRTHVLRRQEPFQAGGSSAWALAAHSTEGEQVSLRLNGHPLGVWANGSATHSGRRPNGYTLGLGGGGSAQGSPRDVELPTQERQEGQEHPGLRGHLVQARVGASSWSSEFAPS

Turning to `Nc1nc(Cl)nc2c1ncn2[C@@H]1O[C@H](CO)[C@@H](O)[C@H]1O` [2-chloroadenosine], the “order of potency at A-2 receptors” value in the test with A-2 receptors is “NECA>2-chloroadenosine>R-PIA>CHA”.
In the case of `CCCOC1=Nc2c(cnn2-c2ccccc2)C2=N[C@@H](Cc3ccccc3)CN12` [Compound 2, (S)-2,7-dihydro-7-phenyl-2-(phenylmethyl)-5-propoxy-3H-imidazo[1,2-c]pyrazolo[4,3-e]pyrimidine], the “A-2 Ki/A-1 Ki” value on adenosine A-2 receptors (setting [2]) came out at 0.18.
In the case of `C1=Nc2c(cnn2-c2ccccc2)C2=N[C@H](Cc3ccccc3)CN12` [Compound 3, (R)-2,7-dihydro-7-phenyl-2-(phenylmethyl)-3H-imidazo[1,2-c]pyrazolo[4,3-e]pyrimidine], the “A-2 Ki/A-1 Ki” value at adenosine A-2 receptors (setting [2]) is 13.20.
Regarding `C1=Nc2c(ncn2-c2ccccc2)C2=N[C@H](Cc3ccccc3)CN12` [Compound 6, (R)-7,8-dihydro-3-phenyl-8-(phenylmethyl)-3H-diimidazo[1,2-c:4',5'-e]pyrimidine], the “A-2 Ki/A-1 Ki” value at adenosine A-2 receptors worked out at 16.40.
`CCCOC1=Nc2c(cnn2-c2ccccc2)C2=N[C@H](C)[C@@H](c3ccccc3)N12` [Compound 7, (2R-trans)-2,7-dihydro-2-methyl-3,7-diphenyl-5-propoxy-3H-Imidazo[1,2-c]pyrazolo[4,3-e]pyrimidine]: at adenosine A-2 receptors (setting [2]), the “A-2 Ki/A-1 Ki” value was found to be 1.17.
Regarding `CCCOC1=Nc2c(ncn2-c2ccccc2)C2=N[C@@H](Cc3ccccc3)CN12` [Compound 12, (S)-7,8-dihydro-3-phenyl-8-(phenylmethyl)-5-propoxy-3H-diimidazo[1,2-c:4',5'-e]pyrimidine], the Ki amounted to 1.6 µM on adenosine A-2 receptors ([3H]NECA, rat brain striatum membranes, 25° C., 60 minutes, read-out: A-2 Receptor Ki) and 9 µM on Adenosine A-1 receptor. Moreover, the “A-2 Ki/A-1 Ki” value at adenosine A-2 receptors (setting [2]) is reported as 0.18.
As for `OC[C@H]1O[C@@H](n2cnc3c2N=CN2C[C@H](Cc4ccccc4)N=C32)[C@H](O)[C@@H]1O` [Compound 13, (S)-7,8-dihydro-3-(β-D-ribofuranosyl)-8-(phenylmethyl)-3H-diimidazo[1,2-c:4',5'-e]pyrimidine], the “A-2 Ki/A-1 Ki” value on adenosine A-2 receptors stood at 1.70.
As to `OC[C@H]1O[C@@H](n2cnc3c2N=CN2C[C@@H](Cc4ccccc4)N=C32)[C@H](O)[C@@H]1O` [Compound 14, (R)-7,8-dihydro-3-(β-D-ribofuranosyl)-8-(phenylmethyl)-3H-diimidazo[1,2-c:4',5'-e]pyrimidine], the “A-2 Ki/A-1 Ki” value at adenosine A-2 receptors is 5.50.
Regarding `CCNC(=O)[C@H]1O[C@@H](n2cnc3c(N)ncnc32)[C@H](O)[C@@H]1O` [NECA, N-5'-ethylcarboxamidoadenosine], in the test on A-2 receptors, the “order of potency at A-2 receptors” value was “NECA>2-chloroadenosine>R-PIA>CHA”.
Consider `CCCn1c(=O)c2[nH]c(-c3ccc(OCC(=O)NCCN)cc3)nc2n(CCC)c1=O` [XAC, amino congener of 8-phenyl-1,3-dipropyl-xanthine], for which, in the test on A-1 receptors (A-1 brain membranes versus A-2 brain slice assay), the “higher affinity for A-1 adenosine receptors vs A-2” value is 40 fold. The “antagonizing the effects of adenosine analogs on heart rate versus blood pressure” value in test [1] was “much more potent in antagonizing the effects of adenosine analogs on heart rate than on blood pressure”.
As for `CCCn1c(=O)c2[nH]c(-c3ccc(OCC(=O)O)cc3)nc2n(CCC)c1=O` [XCC, carboxylic acid congener of 8-phenyl-1,3-dipropyl-xanthine], the adenosine receptor selectivity result with A-1 receptors (A-1 vs A-2, in vitro) was “non-selective”.
